Assay results as given in PubChem BioAssay AID248 (DTP/NCI, 2004).
Several values for one entry are separate records, joined by “and”; a condition that tells them apart may be missing. Equal values may be shown once. Inconclusive results and toxic doses are left out. Cut-off read from the data, not from the text of the source: active = T/C of 150% or more; inactive = T/C below 125%.

Test system: L1210 leukemia ip in BDF1 mice, survival T/C
Assay: NCI In Vivo Anticancer Drug Screen. Data for tumor model L1210 Leukemia (intraperitoneal) in B6D2F1 (BDF1) mice
Settings: endpoint: mean survival time, higher = longer survival
In short: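 Tumor was transplanted into mice, which were then dosed with test compound or vehicle alone. Survival was recorded for each group, and the treated figure was expressed relative to the control figure.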

[1] = dose: 100.0 mg/kg/injection, schedule: Q01DX001 (ip), vehicle: saline with Tween-80
[2] = dose: 100.0 mg/kg/injection, schedule: Q04DX003 (ip), vehicle: saline with Tween-80
[3] = dose: 200.0 mg/kg/injection, schedule: Q01DX001 (ip), vehicle: saline with Tween-80
[4] = dose: 200.0 mg/kg/injection, schedule: Q04DX003 (ip), vehicle: saline with Tween-80
[5] = dose: 400.0 mg/kg/injection, schedule: Q01DX001 (ip), vehicle: saline with Tween-80
[6] = dose: 400.0 mg/kg/injection, schedule: Q04DX003 (ip), vehicle: saline with Tween-80
[7] = dose: 100.0 mg/kg/injection, schedule: Q01DX001 (ip), vehicle: Klucel (hydroxypropylcellulose) (HPC)
[8] = dose: 200.0 mg/kg/injection, schedule: Q01DX001 (ip), vehicle: Klucel (hydroxypropylcellulose) (HPC)
[9] = dose: 400.0 mg/kg/injection, schedule: Q01DX001 (ip), vehicle: Klucel (hydroxypropylcellulose) (HPC)
[10] = dose: 100.0 mg/kg/injection, schedule: Q01DX001 (ip), vehicle: saline
[11] = dose: 200.0 mg/kg/injection, schedule: Q01DX001 (ip), vehicle: saline
[12] = dose: 400.0 mg/kg/injection, schedule: Q01DX001 (ip), vehicle: saline
[13] = dose: 100.0 mg/kg/injection, schedule: Q01DX009 (ip), vehicle: saline with Tween-80
[14] = dose: 200.0 mg/kg/injection, schedule: Q01DX009 (ip), vehicle: saline with Tween-80
[15] = dose: 400.0 mg/kg/injection, schedule: Q01DX009 (ip), vehicle: saline with Tween-80
[16] = dose: 100.0 mg/kg/injection, schedule: Q01DX001 (ip), vehicle: carboxymethylcellulose (CMC)
[17] = dose: 200.0 mg/kg/injection, schedule: Q01DX001 (ip), vehicle: carboxymethylcellulose (CMC)
[18] = dose: 100.0 mg/kg/injection, schedule: Q04DX003 (ip), vehicle: Klucel (hydroxypropylcellulose) (HPC)
[19] = dose: 200.0 mg/kg/injection, schedule: Q04DX003 (ip), vehicle: Klucel (hydroxypropylcellulose) (HPC)
[20] = dose: 400.0 mg/kg/injection, schedule: Q04DX003 (ip), vehicle: Klucel (hydroxypropylcellulose) (HPC)

Measured: T/C

C=C(NC(=O)COc1ccccc1)C(=O)O
inactive: dose: 100.0 mg/kg/injection, schedule: Q01DX009 (ip), vehicle: saline 103 % of control | dose: 100.0 mg/kg/injection, schedule: Q04DX003 (ip), vehicle: saline 116 % of control | dose: 200.0 mg/kg/injection, schedule: Q01DX009 (ip), vehicle: saline 90 % of control | dose: 200.0 mg/kg/injection, schedule: Q04DX003 (ip), vehicle: saline 97 % of control | dose: 400.0 mg/kg/injection, schedule: Q04DX003 (ip), vehicle: saline 100 % of control

Cc1cc(C)nc(NNc2nc(C)cc(C)n2)n1
inactive: [1] 105 % of control | [2] 92 % of control | [3] 104 % of control | [4] 92 % of control | [5] 100 % of control | [6] 100 % of control

O=C(COc1ccc(Cl)c(Cl)c1)NCc1ccncc1
inactive: [7] 93 % of control | [8] 102 % of control | [9] 102 % of control

COC(=O)c1cc(C)cc(Oc2ccccc2N)c1C
inactive: [10] 88 % of control | [11] 102 % of control | [12] 93 % of control

COC(=O)c1ccccc1C1(c2ccccc2C(=O)OC)OC(=O)c2ccccc21
inactive: [13] 97 % of control | [2] 98 % of control | [14] 101 % of control | [4] 93 % of control | [15] 97 % of control | [6] 96 % of control

COc1ccccc1NC(=O)CSC(N)=O
inactive: dose: 75.0 mg/kg/injection, schedule: Q## X000 (ip), vehicle: carboxymethylcellulose (CMC) 100 % of control | dose: 125.0 mg/kg/injection, schedule: Q## X000 (ip), vehicle: carboxymethylcellulose (CMC) 105 % of control | dose: 175.0 mg/kg/injection, schedule: Q## X000 (ip), vehicle: carboxymethylcellulose (CMC) 100 % of control | dose: 200.0 mg/kg/injection, schedule: Q01DX Z (ip), vehicle: carboxymethylcellulose (CMC) 104 % of control | dose: 400.0 mg/kg/injection, schedule: Q01DX Z (ip), vehicle: carboxymethylcellulose (CMC) 105 % of control

CCCC1(c2ccsc2)NC(=O)NC1=O (stereo not given)
inactive: [16] 98 % of control | [17] 98 % of control | dose: 400.0 mg/kg/injection, schedule: Q01DX001 (ip), vehicle: carboxymethylcellulose (CMC) 90 % of control

COC(=O)C12C3OC(C4OC43)C1(C(=O)OC)C1OC2C2OC21 (stereo not given)
inactive: dose: 87.5 mg/kg/injection, schedule: Q01DX009 (ip), vehicle: Klucel (hydroxypropylcellulose) (HPC) 100 % of control | dose: 175.0 mg/kg/injection, schedule: Q01DX009 (ip), vehicle: Klucel (hydroxypropylcellulose) (HPC) 101 % of control | dose: 350.0 mg/kg/injection, schedule: Q01DX009 (ip), vehicle: Klucel (hydroxypropylcellulose) (HPC) 101 % of control

C=C(NC(=O)CNC(=O)CN)C(=O)O
inactive: dose: 100.0 mg/kg/injection, schedule: Q04DX002 (ip), vehicle: saline with Tween-80 105 % of control | dose: 200.0 mg/kg/injection, schedule: Q04DX002 (ip), vehicle: saline with Tween-80 102 % of control | dose: 400.0 mg/kg/injection, schedule: Q04DX002 (ip), vehicle: saline with Tween-80 102 % of control

CS(=O)(=O)Nc1nc2ccccc2s1
inactive: dose: 100.0 mg/kg/injection, schedule: Q04DX003 (ip), vehicle: carboxymethylcellulose (CMC) 98 % of control | dose: 200.0 mg/kg/injection, schedule: Q04DX003 (ip), vehicle: carboxymethylcellulose (CMC) 98 % of control | dose: 400.0 mg/kg/injection, schedule: Q04DX003 (ip), vehicle: carboxymethylcellulose (CMC) 97 % of control

O=C1OC(=O)c2ccc(SCC(O)CCl)c3cccc1c23 (stereo not given)
inactive: dose: 25.0 mg/kg/injection, schedule: Q01DX009 (ip), vehicle: other 98 % of control | dose: 50.0 mg/kg/injection, schedule: Q01DX009 (ip), vehicle: other 93 % of control | dose: 100.0 mg/kg/injection, schedule: Q01DX009 (ip), vehicle: other 93 % of control and 109 % of control

O=[N+]([O-])c1ccc(O)c2ncccc12
inactive: dose: 25.0 mg/kg/injection, schedule: Q04DX002 (ip), vehicle: Klucel (hydroxypropylcellulose) (HPC) 102 % of control | dose: 50.0 mg/kg/injection, schedule: Q01DX001 (ip), vehicle: carboxymethylcellulose (CMC) 101 % of control | dose: 50.0 mg/kg/injection, schedule: Q01DX015 (ip), vehicle: saline 97 % of control | dose: 50.0 mg/kg/injection, schedule: Q04DX002 (ip), vehicle: Klucel (hydroxypropylcellulose) (HPC) 94 % of control and 102 % of control | [16] 109 % of control | dose: 100.0 mg/kg/injection, schedule: Q01DX015 (ip), vehicle: saline 93 % of control | dose: 100.0 mg/kg/injection, schedule: Q04DX002 (ip), vehicle: Klucel (hydroxypropylcellulose) (HPC) 94 % of control (2×) and 95 % of control | [17] 95 % of control | dose: 200.0 mg/kg/injection, schedule: Q01DX015 (ip), vehicle: saline 95 % of control | dose: 200.0 mg/kg/injection, schedule: Q04DX002 (ip), vehicle: Klucel (hydroxypropylcellulose) (HPC) 110 % of control | dose: 400.0 mg/kg/injection, schedule: Q01DX015 (ip), vehicle: saline 91 % of control | dose: 400.0 mg/kg/injection, schedule: Q04DX002 (ip), vehicle: Klucel (hydroxypropylcellulose) (HPC) 91 % of control

CC(CCN(CC(=O)O)CC(=O)O)N(CC(=O)O)CC(=O)O (stereo not given)
inactive: [10] 98 % of control | [11] 101 % of control | [12] 93 % of control

CN(C)N=Nc1cc(Cl)cc(C(N)=O)c1Cl
inactive: [1] 106 % of control | [13] 103 % of control | [3] 101 % of control | [14] 121 % of control | [5] 119 % of control

CC1=C(Br)C(=O)C(c2c(C)c(Br)c(C)c([N+](=O)[O-])c2C)=C(Br)C1=O
inactive: [7] 98 % of control | [18] 102 % of control | [8] 93 % of control | [19] 102 % of control | [9] 106 % of control | [20] 91 % of control

Cc1noc(C)c1C=O
inactive: [18] 102 % of control | [19] 95 % of control

Cc1ccc(NS(=O)(=O)c2ccc(Br)cc2)c(C)c1
inactive: dose: 25.0 mg/kg/injection, schedule: Q01DX009 (ip), vehicle: saline with Tween-80 98 % of control | dose: 50.0 mg/kg/injection, schedule: Q01DX009 (ip), vehicle: saline with Tween-80 96 % of control | [13] 96 % of control | [2] 98 % of control | [14] 98 % of control | [4] 91 % of control | [15] 101 % of control | [6] 93 % of control

CC(=O)NNc1ccc([N+](=O)[O-])cc1
inactive: [18] 89 % of control | [19] 94 % of control | [20] 89 % of control

CN1C=c2c3c(ccc2=C2C=CC4C=C5OCOC5=CC4=C21)OCO3 (stereo not given)
inactive: dose: 2.0 mg/kg/injection, schedule: Q01DX015 (ip), vehicle: saline 97 % of control | dose: 4.0 mg/kg/injection, schedule: Q01DX015 (ip), vehicle: saline 91 % of control | dose: 5.0 mg/kg/injection, schedule: Q01DX001 (ip), vehicle: saline 96 % of control | dose: 6.25 mg/kg/injection, schedule: Q04DX003 (ip), vehicle: saline 92 % of control | dose: 7.5 mg/kg/injection, schedule: Q01DX009 (ip), vehicle: saline 97 % of control | dose: 8.0 mg/kg/injection, schedule: Q01DX015 (ip), vehicle: saline 92 % of control | dose: 10.0 mg/kg/injection, schedule: Q01DX001 (ip), vehicle: saline 96 % of control | dose: 12.5 mg/kg/injection, schedule: Q04DX003 (ip), vehicle: saline 88 % of control | dose: 15.0 mg/kg/injection, schedule: Q01DX009 (ip), vehicle: saline 100 % of control | dose: 16.0 mg/kg/injection, schedule: Q01DX015 (ip), vehicle: saline 100 % of control | dose: 20.0 mg/kg/injection, schedule: Q01DX001 (ip), vehicle: saline 94 % of control | dose: 25.0 mg/kg/injection, schedule: Q04DX003 (ip), vehicle: saline 95 % of control and 90 % of control | dose: 30.0 mg/kg/injection, schedule: Q01DX009 (ip), vehicle: saline 102 % of control
